Test system: mESC Bmi1-luciferase reporter, firefly/renilla ratio, 24 h
Assay: Bmi1-luciferase reporter activators in mESC, dose response, esBAF inhibitor project, mouse embryonic stem cells, cherry-pick (AID 651717);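 note: luciferase knocked into Bmi1 locus with EF-1a renilla as cell number control; rising ratio signals esBAF inhibition which derepresses Bmi1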

SMILES | AC40 [µM]
C(=NOCc1ccccc1)c1cccnc1 | 4.28
CCSc1nnc(Nc2ccccc2)s1 | 11.1
CC1CCCC(C)N1C(=O)c1cc(-c2ccc(Cl)c(Cl)c2)on1 (stereo not drawn) | 6.88
N/C(=N\OC(=O)CC1CCCCC1)c1ccccn1 | 3.84
Cc1cccc(-c2nc(C#N)c(N3CCCCCC3)o2)c1 | 16.7
COc1cccc(OCc2cc(C(=O)N(C)C3CCCCC3)no2)c1 | 4.53
Cc1sc2c(c1C)CN(C(C)(C)C)CN2C(=O)c1ccccc1 | 1.37
Cc1cccc(Oc2coc3cc(O)ccc3c2=O)c1 | 15.7
O=S(=O)(Nc1cccc(-c2ccc(N3CCCCCC3)nn2)c1)c1ccc(C(F)(F)F)cc1 | 13.1
Cc1ccccc1CNC(=O)Nc1ccc(Cl)cc1 | 15.1
COc1ccc(C2=Nc3ccccc3NC(=O)C2N(C(=O)c2cc3ccccc3[nH]2)c2ccccc2)cc1 (stereo not drawn) | 1.44
COc1ccccc1CNC(=O)C[C@@H]1CC[C@@H]2[C@H](COC[C@H](O)CN2C(=O)Nc2ccc(Cl)cc2)O1 | 1.36
Nc1nc(SCc2ccccc2)cc(SCc2ccccc2)n1 | 4.44
CCCN1C(=O)c2ccc(C(=O)Nc3ccc4c(c3)OCO4)cc2C1=O | 9.64
CN(c1cccc(NC(=O)c2ccc(C(C)(C)C)cc2)c1)S(C)(=O)=O | 2.97
Cn1c(=NC(=O)C2CC2)sc2cc(F)cc(F)c21 | 16.6
O=C(NCCO)c1cccc(-c2cnc3c(Nc4cccc(OC(F)(F)C(F)F)c4)nccn23)c1 | 4.46
CCOc1ccc(N=C(/C(C(=O)C(=O)N2CCOCC2)=C(\O)c2ccccc2)c2ccccc2)cc1 | 11.2
Cc1ccc(Nc2ncnc3sc(C)c(C)c23)cc1 | 3.76
Nc1cc2c(cc1Br)-c1ccccc1C2=NO | 9.76
Cc1nc2c(sc3nc4c(cc32)COC(C)(C)C4)c(=O)n1Cc1ccccc1 | 1.18

SMILES | AC40 [µM]
CC(C)(O)c1cc2ccc(C#Cc3ccsc3)cc2c(=O)o1 | 3.42
COc1cc(Cl)ccc1OCc1cc(C(=O)N(C)Cc2cccc3cnccc23)no1 | 7.79
Cc1ccc(C)c(OCc2cc(C(=O)N3CC[C@@H]4CCCC[C@H]4C3)no2)c1 | 7.9
CC(=O)Nc1ccc2c(c1)Cc1c(F)cccc1-2 | 0.977
COc1ccc(-c2ccc(OC)cc2)cc1 | 4.64
CC(Cc1cccs1)NC(=O)c1cccc(Cl)c1 (stereo not drawn) | 2.76
CN(C)S(=O)(=O)c1ccc(C(=O)Nc2ccc3c(c2)CCC3)cc1 | 4.91
O=C(NC1CCCCCCC1)c1cccc(Cl)c1 | 10.7
C=CCn1cccc(C(=O)Nc2ccc(F)cc2)c1=O | 7.32
COc1cccc(/C=C2\SC(N3CCCC(C)C3)=NC2=O)c1OC (stereo not drawn) | 9.58
Cc1cccc(NC(=O)C2C3CCCCC32)c1 (stereo not drawn) | 4.55
Cc1ccc(Nc2nc3c(c(=O)[nH]2)CCCC3)cc1 | 8.9
O=P(O)(O)c1ccccc1OCCOCCOCCOCCOc1ccccc1P(=O)(O)O | 8.04
COc1cccc(-c2nc(-c3ccc(NC(=O)c4cccs4)cc3)no2)c1 | 4.26
C=CCNc1nc(NCc2ccc(NC(C)=O)cc2)c2sc(-c3ccccc3)cc2n1 | 0.635
Cc1cccc(OCc2nc3ccccc3c(=O)n2N)c1 | 7.24
O=C(C[C@@H]1CC[C@@H]2[C@H](COC[C@H](O)CN2C(=O)Nc2ccc(Cl)cc2)O1)NCC1CCCCC1 | 2.62
Nc1cc(OCc2ccccc2)ccc1OCc1ccccc1 | 5.17
O=C(NNC(=O)c1cccc2ccccc12)c1ccc2c(c1)OCO2 | 17.8
O=C(Nc1ccncc1)c1ccc2ncsc2c1 | 22.8
Cc1ccc(N(Cc2ccccc2)C(=O)c2cccc(S(=O)(=O)N3CC(C)OC(C)C3)c2)cc1 (stereo not drawn) | 29.6

SMILES | AC40 [µM]
C=CCNc1nc2cc(-c3ccccc3OC)sc2c(=O)n1C | 5.18
COc1cccc(-c2noc(C3CCCN(C(=O)CC(C)(C)C)C3)n2)c1 (stereo not drawn) | 6.48
CC1CCN(c2oc(-c3cccc4ccccc34)nc2C#N)CC1 | 2.52
C[C@H]1CN([C@@H](C)CO)C(=O)CCCn2nncc2CO[C@@H]1CN(C)C(=O)Nc1ccc2c(c1)OCCO2 | 29.2
CCCC(=O)Nc1sc2c(c1C#N)CCCCC2 | 2.39
CC(C)(C)c1ccc(C(=O)c2cn[nH]c2-c2ccccc2O)cc1 | 7.24
CC(C)(C)C(=O)N1CCN(c2nc3ccccc3s2)CC1 | 0.702
COC(=O)c1ccc(COC(=O)c2ccc(SC)cc2OC)cc1 | 8.51
O=C(NCC1CC1)Nc1ccc(Cl)cc1 | 15.5
c1ccc(-c2nnc3oc(-c4cccs4)nn23)cc1 | 5.88
O=C(CC1CC2CCC1C2)NC1CCCCCCC1 (stereo not drawn) | 9.68
c1ccc(C2Oc3ccccc3C3CC(c4cccs4)=NN32)cc1 (stereo not drawn) | 8.04
CCn1cnc2cc(NCc3ccc(OC)cc3)ccc21 | 0.992
COC(=O)c1ccc(NC(=O)c2cc3sccc3n2C)cc1 | 6.75
O=C(NCc1ccccc1)c1cc(-c2cccc(O)c2)on1 | 12.6
O=C(NCc1ccccn1)Nc1ccc(Br)cc1Cl | 2.68
OC(c1ccc(F)cc1)c1ncc(-c2ccc3ccccc3c2)[nH]1 (stereo not drawn) | 10.9
O=C(NN=Cc1ccc2c(c1)CCC2)c1ccccc1O | 2.45
Cn1c(/C(C#N)=C(\O)c2ccc(Cl)s2)nc2ccccc21 | 3.09
O=C1CCCc2c1sc1nc3n(c(=O)c21)CCCCC3 | 4.12
COC(=O)c1c(-c2ccc(SC)cc2)sc2ccc(OC)cc12 | 0.613

— PubChem BioAssay AID651717 (Broad Institute, 2012)
